Assay results reported in publication PMC6595003, “Insights into real-time chemical processes in a calcium sensor protein-directed dynamic library” (Nature Communications, 2019).
Values joined by “and” are separate entries in the source; they are usually repeats but may differ in a detail not shown here. Equal values may be shown once.

Experiments:
[1] = commercial drugs; ref 5 (Hou et al., 2004); cited from earlier work
[2] = Parallel artificial membrane permeability assay (PAMPA-BBB); type: in vitro ADME; settings: for Papp at 2.5 h: pig, PAMPA-BBB, pH 7.4, 5% DMSO, 2 h 30 min at 25 °C, mean ± SD, read-out: Pe, in vitro permeability; for Pe (10-6 cm s-1) Experimental 1 / Pe (10-6 cm s-1) Experimental 2 / Pe (10-6 cm s-1) Experimental 3: source data
Text: The PAMPA methodology is a high-throughput technique to predict passive permeability through biological membranes that employs a brain lipid porcine as membrane. […]
From this equation and following the pattern established in the literature for BBB permeation prediction2 we could classify compounds as CNS + when they present a permeability > 4.50 x 10-6 cm s-1. Source data are provided as a Source Data file. […]
Parallel artificial membrane permeability assays. Prediction of the brain penetration was evaluated using a parallel artificial membrane permeability assay (PAMPA).4 Ten commercial drugs, phosphate buffer saline solution at pH 7.4 (PBS). DMSO and dodecane were purchased from Sigma, Across organics, Aldrich and Fluka. The porcine […]
plate was a 96-well filtrate plate (Multiscreen® IP Sterile Plate PDVF membrane, pore […]
MAIPS4510) and the acceptor plate was an indented 96-well plate (Multiscreen®, catalog no. MAMCS9610) both from Millipore. Filter PDVF […]
membrane units (diameter 30 mm, pore size 0.45 µm) from Symta were used to filter the samples. A 96-well plate UV reader (Thermoscientific, Multiskan spectrum) was used for the UV measurements.

[3] = test system: NCS-1/Ric8a interaction; set-up: method as in PMID 28119500, PMID 29966094; settings: cited from earlier work
[4] = biological target: T1, dNCS-1 (Drosophila melanogaster, UniProt Q9VWX8); experiment: Protein-directed DCL, HPLC-MS relative peak area with and without dNCS-1
T1 construct: made in house; host or cells: E. coli
T1 sequence (Q9VWX8 1-187): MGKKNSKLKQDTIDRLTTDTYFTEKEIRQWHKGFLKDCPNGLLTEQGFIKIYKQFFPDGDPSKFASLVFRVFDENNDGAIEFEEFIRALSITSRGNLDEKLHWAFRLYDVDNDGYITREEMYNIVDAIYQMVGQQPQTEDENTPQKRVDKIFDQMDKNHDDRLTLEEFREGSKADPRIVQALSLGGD
Experimental: The reversibility of the DCL was evident, since an identical equilibrium distribution to that shown in Fig. 4a was obtained when two different starting points were employed. The observed degree of amplification was 3b > 3e ≥ 3d > 3a. The precise composition of the DCL (with and without dNCS-1), was assessed by measuring the relative peak area (RPA). Indeed, the normalized change of RPA was used to quantify the protein influence in the final outcome (Supplementary Figs. 9, 10 and Supplementary Tables 1, 2 and 3)[28]. […] Note that compounds 3a–3e can exist as E/Z isomers of the C = N bond. […].
Aldehyde 1 (1.2 μL, 50 mM, DMSO), the five acylhydrazides 2a–2e (5 × 3.6 μL, 50 mM, DMSO), p-anisidine (1 μL, 12 M, DMSO) and buffer 20 mM Tris, 0.5 M NaCl and 1 mM CaCl2, 1 mM DTT at pH 7.4 (750 μL) in 3.3 % DMSO. The mixture was stabilized in 5 h at 4 °C. HPLC analysis was performed.
Aldehyde 1 (1.2 μL, 50 mM, DMSO), the five acylhydrazides 2a–2e (5 × 3.6 μL, 50 mM, DMSO), p-anisidine (1 μL, 12 mM, DMSO) and dNCS-1 in buffer 20 mM Tris, 0.5 M NaCl and 1 mM CaCl2, 1 mM DTT at pH 7.4 (66.7 μM, 750 μL, 1 eq.). The experiment is in 3.3% DMSO. The mixture was stabilized for 5 h at 4 °C. Then, dNCS-1 was removed by ultrafiltration using an Amicon Ultra filter (0.5–10 KDa). HPLC analysis was performed and the traces were compared with the blank composition.
Supplementary Figure 9. Relative Peak Area of the DCL with and without dNCS1. Aldehyde
1 (1.2 µL, 50 mM), 2a-e (3.6 µL, 50 mM), catalyst (1 µL, 12 M), dNCS-1:1 [1:1], tris buffer (20
mM, pH 7.4), 1 mM CaCl2, 0.5 M NaCl, 1 mM DTT, T = 4 °C, 2% DM SO. Mean relative peak
area (RPA) of each acylhydrazone of the library in the absence (blank) and presence of dNCS-1.
Error bars indicate standard deviation (SD) over three experiments. The calculation is set by the
sum of all peak areas to 100% and assigning each peak its percentage. Source data are provided
R P A N o rm aliz ed V a riation
Supplementary Figure 10. RPA normalized of variation of DCL with and without dNCS1.
Aldehyde 1 (1.2 µL, 50 mM), 2a-e (3.6 µL, 50 mM), catalyst (1 µL, 12 M), dNCS-1:1 [1:1], tris
buffer (20 mM, pH 7.4), 1 mM CaCl2, 0.5 M NaCl, 1 mM DTT, T = 4 °C, 2% DM SO. Error
bars indicate SD over three experiments. Source data are provided as a Source Data file.

CCOC(=O)c1ccc(N)cc1 [Benzocaine]
Experimental log S [1]: -2.32

CN(C)CCCN1c2ccccc2Sc2ccccc21 [Promazine]
Papp at 2.5 h [2]: 9.5 ± 0.6 ×10⁻⁶ cm/s | Pe (10-6 cm s-1) Experimental 1 [2]: 9.5 10-6 cm s-1 | Pe (10-6 cm s-1) Experimental 2 [2]: 9.04 10-6 cm s-1 | Pe (10-6 cm s-1) Experimental 3 [2]: 9.94 10-6 cm s-1

O=C1NC(=O)C(c2ccccc2)(c2ccccc2)N1 [Phenytoin]
Experimental log S [1]: -3.99

O=C1CN(/N=C/c2ccc([N+](=O)[O-])o2)C(=O)N1 [Nitrofurantoin]
Experimental log S [1]: -3.47

Cl[C@H]1[C@H](Cl)[C@@H](Cl)[C@@H](Cl)[C@H](Cl)[C@H]1Cl [Lindane]
Experimental log S [1]: -4.64

CCOP(=S)(OCC)Oc1ccc([N+](=O)[O-])cc1 [Parathion]
Experimental log S [1]: -4.66

O=C(CN1CCCCC1)NN1c2ccccc2Sc2ccccc21 [FD44]
reported inhibition of the NCS-1/Ric8a interaction [3]: strong

CN1C(C(=O)Nc2ccccn2)=C(O)c2ccccc2S1(=O)=O [Piroxicam]
Papp at 2.5 h [2]: 1.3 ± 0.2 ×10⁻⁶ cm/s | Pe (10-6 cm s-1) Experimental 1 [2]: 1.3 10-6 cm s-1 | Pe (10-6 cm s-1) Experimental 2 [2]: 1.16 10-6 cm s-1 | Pe (10-6 cm s-1) Experimental 3 [2]: 1.44 10-6 cm s-1

Cn1c(=O)c2c(ncn2C)n(C)c1=O [Caffeine]
Pe (10-6 cm s-1) Experimental 1 [2]: 1.3 10-6 cm s-1 | Pe (10-6 cm s-1) Experimental 2 [2]: 0.87 10-6 cm s-1 | Pe (10-6 cm s-1) Experimental 3 [2]: 1.70 10-6 cm s-1

CCn1cc(C(=O)O)c(=O)c2cc(F)c(N3CCNCC3)nc21 [Enoxacin]
Pe (10-6 cm s-1) Experimental 1 [2]: 1.4 10-6 cm s-1 | Pe (10-6 cm s-1) Experimental 2 [2]: 1.30 10-6 cm s-1 | Pe (10-6 cm s-1) Experimental 3 [2]: 1.47 10-6 cm s-1

CNCCCN1c2ccccc2CCc2ccccc21 [Desipramine]
Pe (10-6 cm s-1) Experimental 2 [2]: 16.20 10-6 cm s-1 | Pe (10-6 cm s-1) Experimental 3 [2]: 13.70 10-6 cm s-1

CC(=O)Oc1ccccc1C(=O)O [Aspirin]
Experimental log S [1]: -1.72

CN(C)C(=O)Nc1ccc(Cl)c(Cl)c1 [Diuron]
Experimental log S [1]: -3.80

CCOC(=O)CC(SP(=S)(OC)OC)C(=O)OCC (stereo not shown) [Malathion]
Experimental log S [1]: -3.37

CCOP(=S)(OCC)Oc1nc(Cl)c(Cl)cc1Cl [Chlorpyriphos]
Experimental log S [1]: -5.49

O=C1OC(c2ccc(O)cc2)(c2ccc(O)cc2)c2ccccc21 [Phenolpthalein]
Experimental log S [1]: -2.60

O=C(N/N=C/c1ccc([N+](=O)[O-])c(O)c1)c1cccs1 [3e]
RPA, Blank DCL ([4]; as fraction of total area): 0.3277 | RPA, Templated DCL ([4]; as fraction of total area, with dNCS-1): 0.4342 | RPA (%) with protein (templated DCL) ([4]; relative peak area in presence of dNCS-1): 43.4% and 43.4187% | RPA (%) without protein (blank DCL) ([4]; relative peak area, sum of all peak areas set to 100%): 32.8% and 32.7742% | RPA (%), Blank DCL ([4]; sheet Supplementary Figure 10): 32.8% | RPA (%), Templated DCL ([4]; sheet Supplementary Figure 10, with dNCS-1): 43.4%

O=C(CC(c1ccccc1)c1ccccc1)Nc1nc2ccccc2s1 [IGS-1.76]
reported inhibition of the NCS-1/Ric8a interaction [3]: strong
